Laboratory results from the supplement of paper PMC10307832.

What was measured:
Assay in all cases: relative viability (nuclei count vs DMSO), 5 days (fraction); higher = more cells survive
Shikonin + Alpelisib = compound: CC(C)=CC[C@@H](O)C1=CC(=O)c2c(O)ccc(O)c2C1=O [Shikonin] + Cc1nc(NC(=O)N2CCC[C@H]2C(N)=O)sc1-c1ccnc(C(C)(C)C(F)(F)F)c1 [Alpelisib] (partner 2 µM)
Summary of the method: (§1)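 Lung cancer cell lines were pin-tool dosed in 1536-well plates on the day after seeding, with either a lone drug or a fixed anchor-drug dose plus five library-drug doses (not always all listed) in √10 steps. Nuclei were counted on 4× images after 5 days. Relative viability is the ratio of treated-well to vehicle-well nuclei counts, with each value a median of duplicate plates.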

[1] = compound: CC(C)N(CCCNC(=O)Nc1ccc(C(C)(C)C)cc1)C[C@H]1O[C@@H](n2ccc3c(N)ncnc32)[C@H](O)[C@@H]1O + C[C@@H](Oc1cc(-c2cnn(C3CCNCC3)c2)cnc1N)c1c(Cl)ccc(F)c1Cl [Crizotinib] (partner 1 µM)
Summary of the method: as §1

Shikonin + Dasatinib = compound: CC(C)=CC[C@@H](O)C1=CC(=O)c2c(O)ccc(O)c2C1=O [Shikonin] + Cc1nc(Nc2ncc(C(=O)Nc3c(C)cccc3Cl)s2)cc(N2CCN(CCO)CC2)n1 [Dasatinib] (partner 0.075 µM)
Summary of the method: as §1

[2] = compound: CC(C)N(CCCNC(=O)Nc1ccc(C(C)(C)C)cc1)C[C@H]1O[C@@H](n2ccc3c(N)ncnc32)[C@H](O)[C@@H]1O + COc1cc2c(Oc3ccc(NC(=O)C4(C(=O)Nc5ccc(F)cc5)CC4)cc3F)ccnc2cc1OCCCN1CCOCC1 [Foretinib] (partner 0.25 µM)
Summary of the method: as §1

| Cell Line | relative viability (Shikonin + Alpelisib; first compound 0.01 µM) | relative viability (Shikonin + Alpelisib; first compound 0.1 µM) | relative viability (Shikonin + Alpelisib; first compound 0.3162 µM) | relative viability (Shikonin + Alpelisib; first compound 1 µM) | relative viability ([1]; first compound 0.08 µM) | relative viability ([1]; first compound 0.253 µM) | relative viability ([1]; first compound 0.8 µM) | relative viability ([1]; first compound 2.53 µM) | relative viability ([1]; first compound 8 µM) | relative viability (Shikonin + Dasatinib; first compound 0.01 µM) | relative viability (Shikonin + Dasatinib; first compound 0.1 µM) | relative viability (Shikonin + Dasatinib; first compound 0.3162 µM) | relative viability (Shikonin + Dasatinib; first compound 1 µM) | relative viability ([2]; first compound 0.08 µM) | relative viability ([2]; first compound 0.253 µM) | relative viability ([2]; first compound 0.8 µM) | relative viability ([2]; first compound 2.53 µM) | relative viability ([2]; first compound 8 µM) |
| --- | --- | --- | --- | --- | --- | --- | --- | --- | --- | --- | --- | --- | --- | --- | --- | --- | --- | --- |
| NCI-H1915 | 1.09 | 1.12 | 1.13 | 1.04 | 0.937 | 0.879 | 0.768 | 0.863 | 0.793 | 0.316 | 0.35 | 0.3 | 0.341 | 1.02 | 1.07 | 1.06 | 1 | 1.03 |
| NCI-H1944 | 0.747 | 0.936 | 0.992 | 0.909 | 1.09 | 1.09 | 1.14 | 1.13 | 1.1 | 0.193 | 0.247 | 0.196 | 0.158 | 0.811 | 0.88 | 0.958 | 0.919 | 0.882 |
| NCI-H1975 | 0.676 | 0.712 | 0.702 | 0.538 | 0.895 | 0.867 | 0.879 | 0.806 | 0.839 | 0.354 | 0.344 | 0.344 | 0.359 | 0.853 | 0.916 | 0.871 | 0.707 | 0.765 |
| NCI-H1993 | – | 0.662 | 0.661 | 0.699 | 0.767 | 0.935 | 0.877 | 0.841 | 0.888 | 0.537 | 0.489 | 0.645 | 0.361 | 0.755 | – | – | 0.796 | 0.784 |
| NCI-H2009 | 1.31 | 1.24 | 1.22 | 0.802 | 1.03 | 0.971 | 1.08 | 0.999 | 1.08 | 0.281 | 0.301 | 0.239 | 0.134 | 1.26 | 1.19 | 1.23 | 1.24 | 1.19 |
| NCI-H2023 | 0.579 | 0.709 | 0.589 | 0.598 | 0.753 | 0.733 | 0.859 | 0.755 | 0.751 | 0.674 | 0.646 | 0.626 | 0.611 | 0.811 | 0.958 | 1.02 | 1.03 | 0.773 |
| NCI-H2085 | 0.986 | 0.913 | 0.905 | 0.685 | 0.764 | 0.884 | 0.99 | 0.836 | 0.785 | 0.229 | 0.248 | 0.221 | 0.222 | 0.957 | 1.04 | 1.1 | 0.928 | 1.02 |
| NCI-H2087 | 1.15 | 0.967 | 1.12 | 1.04 | 0.981 | 1.04 | 1.16 | 0.945 | 0.795 | 0.868 | 1.1 | 0.83 | 0.893 | 1.1 | 1.32 | 1.22 | 1.14 | 1.22 |
| NCI-H2126 | 0.764 | 0.843 | 0.786 | 0.763 | 1.01 | 0.986 | 1.06 | 0.992 | 0.959 | 0.599 | 0.595 | 0.656 | 0.685 | 1.18 | 1.04 | 1.16 | 1.13 | 1.2 |
| NCI-H2170 | 0.824 | 0.672 | 0.92 | 0.793 | 1.12 | 1.18 | 1.22 | 1.19 | 1.28 | 0.611 | 0.465 | 0.651 | 0.54 | 0.967 | 0.987 | 0.995 | 0.992 | 0.977 |
| NCI-H2228 | 0.66 | 0.781 | 0.73 | 0.556 | 0.586 | – | 0.468 | 0.543 | 0.44 | 0.539 | 0.534 | 0.46 | 0.522 | 0.865 | 0.895 | 0.931 | 0.976 | 0.905 |
| NCI-H2347 | 0.992 | 0.99 | 0.962 | 1.03 | 0.752 | 0.497 | 0.582 | 0.709 | 0.738 | 0.268 | 0.351 | 0.296 | 0.2 | 1.1 | 0.778 | 0.865 | 0.721 | 0.993 |
| NCI-H2405 | 0.742 | 0.798 | 0.864 | 0.761 | 0.875 | 0.822 | 0.782 | 0.865 | 0.856 | 0.206 | 0.235 | 0.256 | 0.256 | 1.02 | 1.07 | 1.04 | 1.12 | 1.03 |
| NCI-H3122 | 0.752 | 0.823 | 0.844 | 0.79 | 0.349 | 0.299 | 0.285 | 0.3 | 0.277 | 0.882 | 0.761 | 0.969 | 0.861 | 0.887 | 0.951 | 0.979 | 0.922 | 0.887 |
| PC-3 [JPC-3] | 1.04 | 1.11 | 1.05 | 1.08 | 0.991 | 0.994 | 0.885 | 0.977 | 0.917 | 1.11 | 0.968 | 1.1 | 0.958 | 1.05 | 1.15 | 0.96 | 1.05 | 0.936 |
| PC-14 | 0.933 | 1.01 | 1.07 | 1.07 | 0.907 | 0.881 | 0.97 | 0.943 | 0.723 | 0.224 | 0.258 | 0.263 | 0.24 | 0.912 | 0.944 | 0.896 | 0.95 | 0.792 |
| RERF-LC-KJ | 0.78 | 0.732 | 0.798 | 0.787 | 0.821 | 0.85 | 0.845 | 0.789 | 0.779 | 0.991 | 0.975 | 0.834 | 0.661 | 0.906 | 0.814 | 0.888 | 0.794 | 0.79 |
